# Measured values reported in patent US20240016784A1, “Y BOX BINDING PROTEIN 1 INHIBITORS” (Oregon Health & Science University, priority 2020, published 2024).
# Tested on: OC cell lines
# Experiment: Cell migration assay (Boyden chamber)
# Assay type: cell-based
# Conditions: different OC cell lines, P<0.05
# Experimental: To determine whether proliferation inhibition was the dominant factor driving the reduction in OC viability seen with AzP treatment, we used propidium iodide and annexin-FITC stains with flow cytometry to measure the distribution of cell cycle phases after treatment. […] Furthermore, in the Boyden chamber assay for cell migration, SU093 inhibited cell migration by 40-46% (1 μM, P<0.05) in different OC cell lines.
# Cell migration assay: 1×10^5 cells were plated in 60 mm cell culture dishes (Corning-Falcon, #353002) and incubated for 24 h. […] Cells were trypsinized and collected in a conical tube for each plate. Pellets of cells were resuspended, and live cells were counted using a hemocytometer and trypan blue staining. 40,000 live cells were then plated in the upper chamber of 8-micron transwell (Corning-Falcon, #353097) with 0.2% FBS media. The lower chamber contained 10% FBS complete media. […] Each transwell was washed, swiped for non-migrated cells and fixed using 75% ethanol. Fixed transwells were stained with 0.5% crystal violet for 1 h. De-stained transwell membranes were cut and mounted on a slide using DPX mounting media. Migrated cells were counted under the microscope at 100× magnification.
# FIG. 1A) Lead optimization of SU093 to obtain SU056. […] FIG. 1G) Effects of SU093 and SU056 on apoptotic cell death analyzed by Annexin-FITC staining. […]
smiles,measurement,value
"O=C1OCC2=C1C(c1cccc(F)c1)c1cc3c(cc1N2CCO)OCO3 (stereo not shown) [SU056, 9-(3-fluorophenyl)-5-(2-hydroxyethyl)-6,9-dihydro-[1,3]dioxolo[4,5-g]furo[3,4-b]quinolin-8(5H)-one]",inhibition at 1 µM,78 to 87%
